Reference: patent publication US20240124510A1, “Cyclic Glycoaminoacid Derivatives” (TFCHEM, priority 2021, published 2024)
Several values for one entry are separate records, joined by “and”; a condition that tells them apart may be missing. Equal entries are not always repeated.

Assays:
[1] = test system: Normal human epidermal keratinocytes (NHEK); assay: Lipid peroxidation in NHEK under UV stimulation (C11-fluor probe, flow cytometry); assay type: cell-based; conditions: 100 μM, irradiated UVB 300 mJ/cm^2 (+UVA 2.1 J/cm^2)
Procedure: Normal human epidermal keratinocytes were seeded in 48-well plates and cultured in culture medium for 24 hours and then in assay medium for a further 24 hours. The medium was then removed and replaced by assay medium containing or not (irradiated control) the test compounds or the reference (BHA—butylated hydroxyanisole, lipid peroxidation inhibitor—at 100 μM) and the cells were pre-incubated for 24 hours. After pre-incubation, the specific fluorescent probe for the measurement of lipid peroxides (C11-fluor) was added and the cells were incubated for 45 minutes. Then, the medium was removed and replaced by assay medium containing or not (irradiated control and test compound conditions) the reference and the cells were irradiated with UVB (+UVA)−300 mJ/cm^2 (+2.1 J/cm^2). The lamp used was a SOL500 Sun Simulator equipped with an H2 filter (Dr. Hbnle. AG). After irradiation, the medium was removed and replaced by assay medium containing or not (irradiated control) the test compounds or the reference and the cells were incubated for 30 minutes before flow cytometry analysis. A non-irradiated control condition was performed in parallel. All experimental conditions were performed in triplicate.
At the end of the incubation, in each well, the cells were trypsinized and transferred into specific tubes for the analysis of C11-fluor fluorescence intensity using a BD FACSVerse™ flow cytometer (acquisition of 2000 to 5000 events per tube). The C11-fluor fluorescent probe is a lipid analogue which integrates cell membranes. As the fluorescence intensity of this probe is decreased with oxidation, it is inversely proportional to the lipid peroxidation. In order to facilitate the result interpretation, the lipid peroxidation was expressed using the value “1/fluorescence intensity” in order to have a direct proportionality between the induction of lipid peroxidation and the values of “% of irradiated control”.
Results presented in Table 24 are expressed as fluorescence intensity and as […] of protection compared to the control.

MCP1 = assay: Extracellular secretion of MCP1 by preadipocytes in inflammatory condition (ELISA); assay type: cell-based, human
Procedure: (§1) Preadipocytes have been isolated from human female hypodermis (body mass index <30 kg/m2 and <45 years old). Preadipocytes have been cultured for 24 h in 100 μl of DMEM-10% Fetal Bovine Serum (FBS) in 96-well plates. Then cells were treated to induce their differentiation in a classical or an inflammatory environment for 13 days.
(§2) To induce the preadipocytes differentiation cells were incubated in a proadipogenic cocktail (PAC) including insulin, glucocorticoid, 3-isobutyl-1-methylxanthine (IBMX), and thiazolinedione in DMEM.
(§3) To induce a fibro-inflammatory environment, cells were treated with an activated human macrophage-conditioned medium (AcMC) prepared in RPMI medium. A treatment with Dexamethasone (DXM) at 100 nM was used as anti-inflammatory response control. At D0: preadipocytes have been treated in the following conditions: • “Undifferentiation”: DMEM+¼ RPMI medium • “Differentiation”: PAC+¼ RPMI medium • “AcMC” i.e. inflammatory condition: PAC+¼ AcMC • “AcMC+DXM”: PAC+[…] AcMC+anti-inflammatory DXM at 100 nM • “AcMc+compounds”: PAC+14 AcMC+compounds to be tested
(§4) All conditions have been performed in triplicate. The medium has been changed every 2 days for 13 days.
(§5) At D14: during the last 24 h of culture, the medium has been replaced by DMEM/F12 medium in all conditions, to collect cells' secretions.
(§6) After 13 days, the 24 h culture media of the different conditions have been collected at the end of the treatment period. The concentrations of IL-6, procollagen I and MCP1 have been evaluated by ELISA assays using specific kits (for IL-6: DY206, DuoSet ELISA, R&D Systems; for Procollagen I: DY6220-05, DuoSet ELISA, R&D Systems; for MCP1: DY279-05 DuoSet ELISA, R&D Systems) according to the manufacture's recommendations. Values have been normalized to the cell number determined by DAPI staining.
Quantity of MCP1 secreted in medium was measured and was normalized by cell number in each culture condition. Data are represented in percentage of proinflammatory control condition (AcMC condition).

IL-6 [2] = assay: Extracellular secretion of IL-6 by preadipocytes in inflammatory condition (ELISA); assay type: cell-based, human
Procedure: as §1, §2, §3, §4, §5, §6
Quantity of IL-6 secreted in medium was measured and was normalized by cell number in each culture condition. Data are represented in percentage of proinflammatory control condition (AcMC condition).

IL-6 [3] = assay: IL-6 secretion in coculture of human aged fibroblasts and mature adipocytes (AM3D-FB2D, ELISA); assay type: cell-based; conditions: for secretion of IL-6 in percentage of the coculture control condition, Mean (%) / secretion of IL-6 in percentage of the coculture control condition, Values (%): 100 nM; for secretion of IL-6 in percentage of the coculture control condition, Values (%): individual replicates; for IL-6 secretion in percentage of the coculture control condition: anti-inflammatory reference item
Source text: In order to evaluate its effect on fibroblast matrix and its anti-inflammatory properties, the effect of compound 6 has been tested on an adipocytes-aged fibroblasts coculture model, mimicking the interactions between dermis and hypodermis in the skin and allowed to explore in parallel the biological effects of the products on two cellular targets.
• Experimental model: co-culture of human mature adipocytes cultured in 3D and human dermal fibroblasts cultured in 2D (AM3D-FB2D co-culture). This experimental model of AM3D-FB2D co-culture mimicked the interactions between dermis and hypodermis in the skin and allowed to explore in parallel the biological effects of the products on two cellular targets. • Donor characteristics: This study was performed on mature adipocytes and fibroblasts from two different donors (one donor for mature adipocytes and another donor for dermal fibroblasts). • Fibroblasts donor=person, BMI=28 kg/m^2 • Adipocytes donor=person, BMI=21.4 kg/m^2 • Treatment procedure: compound 6 was added to the co-culture medium daily for up to 6 days
Dermal fibroblasts were seeded in DMEM 10% FBS at 10000 cells/well. The day after, the adipocytes capsules of 50 μl were added in suspension above the fibroblasts and the medium was changed and replaced by a specific culture medium for the co-culture AM3D-FB2D. The formation of adipocytes capsules followed an internal standardized protocol. Briefly, the fully mature adipocytes were isolated from the hypodermis after digestion by collagenase. The isolated adipocytes were then washed with a wash buffer and encapsulated in a peptidic hydrogel to form 3D adipocytes capsules of 50 μl in size. Cells were incubated at 37° C. and 5% CO2 overnight for stabilization. Treatments were initiated at DO with a medium change at DO, D2, D3 and D5. The entire culture media of 24 h incubation was collected at D3 and D6, before being centrifugated and stored at −80° C. Each culture condition was done in triplicate.
The biochemical analyses on culture media were performed via ELISA using specific kits according to the manufacturer's recommendations: IL-6 (Duoset DY206, R&D Systems), and Hyaluronic Acid (HA) (Duoset, DY3614-05, R&D Systems and Procollagen I (Duoset, DY6220-05, R&D Systems) The results of HA and Procollagen I were normalized by fibroblasts cell number regarding the fact that these molecules were secreted mainly by fibroblasts. All the biochemical results were represented in percentage of the control condition.
To evaluate the effect of the compound 6 on inflammation, the extracellular concentrations of IL-6, that is secreted by the fibroblasts but mainly by the adipocytes, were measured at D3 and D6.

Collagen I fibers = assay: Quantity of Collagen 1 fibers produced by preadipocytes in inflammatory condition (immunofluorescence); assay type: cell-based, human; conditions: AcMC + 100 nM, normalized by cells number (DAPI)
Procedure: as §1, §2, §3
One month after fixation of preadipocytes cultivated in pro-inflammatory environment, cells were incubated with 3% Bovine Serum Albumin (BSA) for 30 min in order to block the non-specific sites, then with primary antibody anti-collagen 1 (Novusbio, NB600-408) over-night. After washes with PBS, cells were incubated for 30 min with 3% BSA and then with the secondary antibodies (Goat anti-rabbit alexa-fluor 488, ThermoFisher, A11008) and DAPI (for nuclei staining) for 1 h. After several washes, the acquisition and the quantification were performed with a fluorescent video-microscope. Briefly, the quantification was based on the detection and quantification of cell nuclei stained with DAPI, and the detection of collagen 1 staining. Collagen 1 fibers were detected and measured for their length, thickness and intensity. A Collagen 1 fibers quantity was calculated (Quantity=length*thickness*fluorescence intensity) and normalized by cells number (DAPI staining).
Collagen I fibers (fibrillar collagen I) quantity was quantified and the data were normalized by cell number (DAPI staining, quantification of nuclei number). Data are represented in percentage of proinflammatory control conditions (AcMC condition).

human preadipocytes = assay: Total lipid accumulation (AdipoRed staining) in preadipocytes/adipocytes in inflammatory condition; assay type: cell-based; conditions: AcMC + 100 nM, end of the culture
Procedure: as §1, §2, §3, §4
After 14 days of culture, preadipocytes have been fixed with 4% paraformaldehyde and then stained by AdipoRed™ at room temperature to reveal the intracellular lipid droplets. Quantification of lipid accumulation has been performed by fluorescence intensity measurements using the spectrophotometer Spark (TECAN).
Lipid accumulation and Lipid index were evaluated for each condition. Data are represented in percentage of proinflammatory control condition (AcMC condition).

[4] = AcMC + 100 nM, normalized by cells number (DAPI)
[5] = AcMC + 100 nM, normalized by cells number (DAPI), individual values

## COc1ccc(O)c(C(C)(C)C)c1 [BHA, Butylated hydroxyanisole, reference compound]
[1]
  % Irradiated control (lipid peroxidation): 31%
  % Protection (lipid peroxidation): 75%
  C11-fluor 1/GMFI Mean (AU): 2.7E−04 AU
[1]; individual replicates
  C11-fluor 1/GMFI (AU): 1.90E−04 AU and 2.74E−04 AU and 3.37E−04 AU
  C11-fluor GMFI (AU): 5266 AU and 3653 AU and 2965 AU

## C[C@@H]1C[C@H]2[C@@H]3CCC4=CC(=O)C=C[C@]4(C)[C@@]3(F)[C@@H](O)C[C@]2(C)[C@@]1(O)C(=O)CO [Dexamethasone, reference compound]
MCP1; [4]
  MCP1 secretion, Mean (%): 95 % of AcMC condition
MCP1; [5]
  MCP1 secretion, Values (%): 82.4 % of AcMC condition and 106.8 % of AcMC condition and 97.2 % of AcMC condition
MCP1; AcMC, DXM at 100 nM
  Effect on the MCP1 secretion: no effect
IL-6 [2]; [4]
  IL-6 secretion, Mean: 22.8 % of AcMC condition
IL-6 [2]; [5]
  IL-6 secretion, Values: 21.9 % of AcMC condition and 21.8 % of AcMC condition and 24.5 % of AcMC condition
IL-6 [2]; preadipocytes/adipocytes, AcMC, 100 nM
  IL-6 secreted, normalized by cell number, in % of AcMC condition: 22.8%
IL-6 [3]; D3
  secretion of IL-6 in percentage of the coculture control condition, Mean (%): 34%
  secretion of IL-6 in percentage of the coculture control condition, Values (%): 22% and 48% and 31%
IL-6 [3]; D6
  secretion of IL-6 in percentage of the coculture control condition, Mean (%): 41%
  secretion of IL-6 in percentage of the coculture control condition, Values (%): 39% and 24% and 61%
IL-6 [3]; 3 days of treatment
  IL-6 secretion in percentage of the coculture control condition: 34%
IL-6 [3]; 6 days of treatment
  IL-6 secretion in percentage of the coculture control condition: 41%
Collagen I fibers
  Collagen I fibers quantity, Mean (%): 391 % of AcMC condition
Collagen I fibers; individual values
  Collagen I fibers quantity, Values (%): 397.3 % of AcMC condition and 390.0 % of AcMC condition and 384.5 % of AcMC condition
Human preadipocytes
  Total Lipid Accumulation (Adipored staining), Mean: 220.6 % of AcMC condition
Human preadipocytes; individual values
  Total Lipid Accumulation (Adipored staining), Values: 213.8 % of AcMC condition and 229.4 % of AcMC condition and 218.6 % of AcMC condition
